# Results from publication PMC10382584, “Macrocyclization of linear molecules by deep learning to facilitate macrocyclic drug candidates discovery” (Nature Communications, 2023).
# How the values were obtained:
# Assay in all cases: biochemical
# Design in all cases: DiscoveRx KINOMEscan competition binding, percent of DMSO control signal at 100 nM
# Conditions in all cases: read-out: Fig. 4a / Percent Control / Compound 1; percent of DMSO control, competition binding
# [1] = biological target: AAK1 (Homo sapiens, UniProt Q2M2I8)
# [2] = biological target: T1, ABL1(T315I)-nonphosphorylated (Homo sapiens, UniProt P00519, T315I)
# T1 construct: nonphosphorylated
# [3] = biological target: AURKA (Homo sapiens, UniProt O14965)
# [4] = biological target: CAMK2B (Homo sapiens, UniProt Q13554)
# [5] = biological target: DAPK1 (Homo sapiens, UniProt P53355)
# [6] = biological target: FLT3(D835V) (Homo sapiens, UniProt P36888, D835V)
# [7] = biological target: FLT3(ITD,F691L) (Homo sapiens, UniProt P36888, F691L/ITD)
# [8] = biological target: FLT3(R834Q) (Homo sapiens, UniProt P36888, R834Q)
# [9] = biological target: LYN (Homo sapiens, UniProt P07948)
# [10] = biological target: T2, MLK1 (Homo sapiens, UniProt P80192)
# T2 construct: gene MAP3K9
# [11] = biological target: MYLK (Homo sapiens, UniProt Q15746)
# [12] = biological target: NEK10 (Homo sapiens, UniProt Q6ZWH5)
# [13] = biological target: NEK7 (Homo sapiens, UniProt Q8TDX7)
# [14] = biological target: T3, NIM1 (Homo sapiens, UniProt Q8IY84)
# T3 construct: gene NIM1K
# [15] = biological target: PDPK1 (Homo sapiens, UniProt O15530)
# [16] = biological target: PRKCE (Homo sapiens, UniProt Q02156)
# [17] = biological target: RIOK1 (Homo sapiens, UniProt Q9BRS2)
# [18] = biological target: RIPK2 (Homo sapiens, UniProt O43353)
# [19] = biological target: T4, RPS6KA4(Kin.Dom.2-C-terminal) (Homo sapiens, UniProt O75676)
# T4 construct: Kin.Dom.2-C-terminal
# [20] = biological target: T5, RSK2(Kin.Dom.2-C-terminal) (Homo sapiens, UniProt P51812)
# T5 construct: gene RPS6KA3; Kin.Dom.2-C-terminal
# [21] = biological target: T6, SIK (Homo sapiens, UniProt P57059)
# T6 construct: gene SIK1
# [22] = biological target: SRC (Homo sapiens, UniProt P12931)
# [23] = biological target: SRPK1 (Homo sapiens, UniProt Q96SB4)
# [24] = biological target: TEC (Homo sapiens, UniProt P42680)
# 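Also: KINOMEscan kinase panel binding assay, signal normalized between DMSO as 100% and a positive control compound as 0%.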
# T2 sequence (P80192 whole entry): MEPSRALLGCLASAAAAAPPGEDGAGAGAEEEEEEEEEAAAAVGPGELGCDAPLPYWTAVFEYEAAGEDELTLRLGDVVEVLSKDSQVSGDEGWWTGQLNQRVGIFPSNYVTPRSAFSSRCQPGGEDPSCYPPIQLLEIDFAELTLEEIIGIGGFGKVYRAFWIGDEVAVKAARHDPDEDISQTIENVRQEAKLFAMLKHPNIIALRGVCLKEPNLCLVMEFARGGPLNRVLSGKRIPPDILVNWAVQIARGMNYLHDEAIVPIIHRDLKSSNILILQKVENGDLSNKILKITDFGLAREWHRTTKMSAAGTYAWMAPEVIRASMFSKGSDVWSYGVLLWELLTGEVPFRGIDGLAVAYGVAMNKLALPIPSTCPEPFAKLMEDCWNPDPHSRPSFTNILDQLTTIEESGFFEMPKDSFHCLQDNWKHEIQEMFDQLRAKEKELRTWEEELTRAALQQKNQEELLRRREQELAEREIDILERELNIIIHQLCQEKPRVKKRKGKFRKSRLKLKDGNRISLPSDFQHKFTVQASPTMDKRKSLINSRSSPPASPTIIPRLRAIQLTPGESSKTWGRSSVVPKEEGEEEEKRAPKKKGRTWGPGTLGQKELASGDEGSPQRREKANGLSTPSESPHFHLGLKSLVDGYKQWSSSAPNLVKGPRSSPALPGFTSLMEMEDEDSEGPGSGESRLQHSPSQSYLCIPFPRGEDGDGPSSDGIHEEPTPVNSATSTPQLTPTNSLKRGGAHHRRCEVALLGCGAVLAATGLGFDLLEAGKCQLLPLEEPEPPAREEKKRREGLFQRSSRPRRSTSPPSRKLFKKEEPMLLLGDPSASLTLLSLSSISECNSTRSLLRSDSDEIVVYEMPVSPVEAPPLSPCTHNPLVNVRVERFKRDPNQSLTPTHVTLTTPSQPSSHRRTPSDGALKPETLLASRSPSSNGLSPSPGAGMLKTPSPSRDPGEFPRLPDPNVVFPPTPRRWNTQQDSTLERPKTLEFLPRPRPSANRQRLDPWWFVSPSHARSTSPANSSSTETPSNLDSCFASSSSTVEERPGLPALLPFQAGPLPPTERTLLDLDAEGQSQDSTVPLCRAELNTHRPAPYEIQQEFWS
# Sequence of MYLK (Q15746 whole entry): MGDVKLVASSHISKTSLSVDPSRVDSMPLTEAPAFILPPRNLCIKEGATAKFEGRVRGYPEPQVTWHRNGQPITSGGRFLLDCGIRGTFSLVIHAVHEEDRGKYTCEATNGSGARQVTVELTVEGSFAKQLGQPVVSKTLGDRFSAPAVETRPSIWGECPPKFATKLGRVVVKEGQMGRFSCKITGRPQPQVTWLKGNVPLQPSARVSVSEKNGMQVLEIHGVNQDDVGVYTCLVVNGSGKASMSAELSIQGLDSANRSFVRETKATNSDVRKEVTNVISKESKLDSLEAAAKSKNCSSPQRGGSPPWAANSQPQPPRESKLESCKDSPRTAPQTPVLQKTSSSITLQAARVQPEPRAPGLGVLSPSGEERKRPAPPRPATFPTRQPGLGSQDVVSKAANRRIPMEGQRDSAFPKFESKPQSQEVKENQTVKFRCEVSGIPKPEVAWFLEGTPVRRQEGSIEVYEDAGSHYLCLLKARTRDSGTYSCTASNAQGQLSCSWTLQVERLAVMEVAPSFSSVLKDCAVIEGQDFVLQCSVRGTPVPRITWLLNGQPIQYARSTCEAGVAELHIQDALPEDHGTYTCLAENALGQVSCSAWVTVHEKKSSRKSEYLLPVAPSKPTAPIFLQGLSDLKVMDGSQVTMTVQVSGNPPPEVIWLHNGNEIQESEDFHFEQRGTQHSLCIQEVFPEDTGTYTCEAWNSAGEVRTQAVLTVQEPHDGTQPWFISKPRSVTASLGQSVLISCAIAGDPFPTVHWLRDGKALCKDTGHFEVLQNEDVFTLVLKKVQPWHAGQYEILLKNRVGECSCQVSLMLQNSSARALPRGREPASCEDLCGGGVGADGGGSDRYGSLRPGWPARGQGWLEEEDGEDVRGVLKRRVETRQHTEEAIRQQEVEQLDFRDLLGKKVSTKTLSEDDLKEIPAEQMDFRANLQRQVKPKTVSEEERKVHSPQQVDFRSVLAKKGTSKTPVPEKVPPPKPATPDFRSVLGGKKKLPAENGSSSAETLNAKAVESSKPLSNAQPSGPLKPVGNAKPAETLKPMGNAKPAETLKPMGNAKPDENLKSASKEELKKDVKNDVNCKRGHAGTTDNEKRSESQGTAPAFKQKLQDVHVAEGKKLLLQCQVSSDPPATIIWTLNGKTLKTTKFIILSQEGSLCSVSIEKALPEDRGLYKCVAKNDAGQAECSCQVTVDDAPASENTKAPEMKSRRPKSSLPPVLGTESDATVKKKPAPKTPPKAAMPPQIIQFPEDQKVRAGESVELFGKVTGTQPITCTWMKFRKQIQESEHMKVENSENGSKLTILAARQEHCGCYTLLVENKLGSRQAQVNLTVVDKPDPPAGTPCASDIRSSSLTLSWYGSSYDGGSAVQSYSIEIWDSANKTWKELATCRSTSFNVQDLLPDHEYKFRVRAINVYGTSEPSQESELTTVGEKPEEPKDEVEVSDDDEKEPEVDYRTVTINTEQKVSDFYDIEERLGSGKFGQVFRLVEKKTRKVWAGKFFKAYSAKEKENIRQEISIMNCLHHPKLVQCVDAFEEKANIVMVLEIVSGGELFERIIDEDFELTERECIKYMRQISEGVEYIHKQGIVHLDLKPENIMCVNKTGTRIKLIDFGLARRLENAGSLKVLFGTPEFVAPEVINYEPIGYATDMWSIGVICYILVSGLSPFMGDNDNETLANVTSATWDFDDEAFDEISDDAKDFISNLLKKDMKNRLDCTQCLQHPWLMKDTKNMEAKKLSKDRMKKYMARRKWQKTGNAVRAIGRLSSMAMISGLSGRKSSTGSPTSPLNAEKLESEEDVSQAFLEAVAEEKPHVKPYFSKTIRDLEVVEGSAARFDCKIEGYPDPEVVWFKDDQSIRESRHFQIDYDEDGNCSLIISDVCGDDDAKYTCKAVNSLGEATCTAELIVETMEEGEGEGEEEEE
# Sequence of PRKCE (Q02156 whole entry): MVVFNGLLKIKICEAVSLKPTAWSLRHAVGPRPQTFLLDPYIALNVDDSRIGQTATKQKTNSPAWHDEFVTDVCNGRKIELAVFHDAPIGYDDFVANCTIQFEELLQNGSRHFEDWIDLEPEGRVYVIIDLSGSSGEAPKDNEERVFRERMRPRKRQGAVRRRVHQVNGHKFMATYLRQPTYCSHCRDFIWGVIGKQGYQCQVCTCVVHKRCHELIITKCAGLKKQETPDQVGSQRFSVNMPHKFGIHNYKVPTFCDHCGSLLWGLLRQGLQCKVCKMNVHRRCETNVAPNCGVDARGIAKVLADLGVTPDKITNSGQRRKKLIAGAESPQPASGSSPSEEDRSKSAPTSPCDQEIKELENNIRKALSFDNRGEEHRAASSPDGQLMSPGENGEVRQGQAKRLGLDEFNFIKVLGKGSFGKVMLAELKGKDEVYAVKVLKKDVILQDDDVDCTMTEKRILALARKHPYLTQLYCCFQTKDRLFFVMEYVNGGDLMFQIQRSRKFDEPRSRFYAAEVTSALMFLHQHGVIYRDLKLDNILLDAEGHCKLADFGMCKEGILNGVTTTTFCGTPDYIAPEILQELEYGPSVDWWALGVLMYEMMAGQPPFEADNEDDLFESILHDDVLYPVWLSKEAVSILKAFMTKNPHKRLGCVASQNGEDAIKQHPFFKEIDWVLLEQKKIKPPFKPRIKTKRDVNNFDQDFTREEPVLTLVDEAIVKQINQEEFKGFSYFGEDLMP
# Sequence of NEK7 (Q8TDX7 whole entry): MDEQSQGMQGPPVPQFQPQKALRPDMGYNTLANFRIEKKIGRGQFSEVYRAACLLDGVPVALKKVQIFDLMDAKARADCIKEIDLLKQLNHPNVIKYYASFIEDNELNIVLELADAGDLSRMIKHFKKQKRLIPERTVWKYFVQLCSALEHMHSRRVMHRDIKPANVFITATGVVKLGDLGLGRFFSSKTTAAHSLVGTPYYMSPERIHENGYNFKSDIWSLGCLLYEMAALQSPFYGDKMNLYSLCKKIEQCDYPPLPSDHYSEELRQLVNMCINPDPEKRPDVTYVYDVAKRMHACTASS
# Sequence of CAMK2B (Q13554 whole entry): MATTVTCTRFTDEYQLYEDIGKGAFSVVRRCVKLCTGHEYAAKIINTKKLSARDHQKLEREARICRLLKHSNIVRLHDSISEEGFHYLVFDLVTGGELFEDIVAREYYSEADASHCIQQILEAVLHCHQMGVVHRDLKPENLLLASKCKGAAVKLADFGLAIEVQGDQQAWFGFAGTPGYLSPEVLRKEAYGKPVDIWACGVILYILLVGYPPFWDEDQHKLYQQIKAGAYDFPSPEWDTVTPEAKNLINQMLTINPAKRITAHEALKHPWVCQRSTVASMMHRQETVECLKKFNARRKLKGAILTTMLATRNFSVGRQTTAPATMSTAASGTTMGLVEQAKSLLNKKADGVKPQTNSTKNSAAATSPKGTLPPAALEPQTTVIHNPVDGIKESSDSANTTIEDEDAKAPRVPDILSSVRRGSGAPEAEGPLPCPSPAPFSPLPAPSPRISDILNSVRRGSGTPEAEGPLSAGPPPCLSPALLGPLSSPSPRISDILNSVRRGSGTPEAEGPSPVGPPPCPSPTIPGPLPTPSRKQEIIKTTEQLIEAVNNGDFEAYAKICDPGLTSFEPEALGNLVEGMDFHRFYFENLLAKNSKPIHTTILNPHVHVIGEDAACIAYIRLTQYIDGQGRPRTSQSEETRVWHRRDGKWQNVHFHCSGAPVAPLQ
smiles,measurement,setting,value
Cc1cnc2nc1Nc1cccc(c1)COCc1cc(ccc1OCCN1CCCC1)N2 [Compound 1],remaining binding at 0.1 µM,[1],81%
same,remaining binding at 0.1 µM,[2],80%
same,remaining binding at 0.1 µM,[3],38%
same,remaining binding at 0.1 µM,[4],94%
same,remaining binding at 0.1 µM,[5],94%
same,remaining binding at 0.1 µM,[6],3.3%
same,remaining binding at 0.1 µM,[7],0%
same,remaining binding at 0.1 µM,[8],23%
same,remaining binding at 0.1 µM,[9],92%
same,remaining binding at 0.1 µM,[10],100%
same,remaining binding at 0.1 µM,[11],93%
same,remaining binding at 0.1 µM,[12],95%
same,remaining binding at 0.1 µM,[13],72%
same,remaining binding at 0.1 µM,[14],99%
same,remaining binding at 0.1 µM,[15],98%
same,remaining binding at 0.1 µM,[16],98%
same,remaining binding at 0.1 µM,[17],75%
same,remaining binding at 0.1 µM,[18],99%
same,remaining binding at 0.1 µM,[19],75%
same,remaining binding at 0.1 µM,[20],87%
same,remaining binding at 0.1 µM,[21],100%
same,remaining binding at 0.1 µM,[22],75%
same,remaining binding at 0.1 µM,[23],97%
same,remaining binding at 0.1 µM,[24],94%
